Reference: article PMC7025694 (Acta Orthopaedica, 2018)

Type: in vivo, pig

- time to a mean MIC of 8 µg/mL (intervertebral disc, pig, 1,000 mg i.v. over 100 min, sampling 8 h): could not be reached
- Tmax, time to Cmax (plasma (unbound), pig, 1,000 mg i.v. single dose over 100 min, mean (95% CI)): 75 (61–89) min
SMILES: CN[C@H](CC(C)C)C(=O)N[C@H]1C(=O)N[C@@H](CC(N)=O)C(=O)N[C@H]2C(=O)N[C@H]3C(=O)N[C@H](C(=O)N[C@H](C(=O)O)c4cc(O)cc(O)c4-c4cc3ccc4O)[C@H](O)c3ccc(c(Cl)c3)Oc3cc2cc(c3O[C@@H]2O[C@H](CO)[C@@H](O)[C@H](O)[C@H]2O[C@H]2C[C@](C)(N)[C@H](O)[C@H](C)O2)Oc2ccc(cc2Cl)[C@H]1O [vancomycin]
